Measurements: patent publication US7582681B2, “Synergistic mixtures of 1,2-alkane diols” (Symrise GmbH & Co. KG, priority 2002, dated 2009)
In brackets after ≈: the same amount, converted by molar mass.

Columns and labels:
Format in all cases: cell-based
[1] = system: Staphylococcus aureus ATCC 6538; experiment: Test for adequate preservation (European Pharmacopea), 1,2-diols and 1,2-diol mixtures in O/W emulsion; settings: 3% diol(s) in O/W emulsion
Method: (§1) A test for adequate preservation was carried out in accordance with the European Pharmacopea. The test thus consists of the contamination of the formulation, if possible in its final ratio, with a prescribed inoculum of suitable microorganisms, storage of the inoculated formulation at a specific temperature, taking of samples from the vessel at specific intervals and determination of the number of microorganisms in the samples taken in this way. The preserving properties are adequate if, under the conditions of the test, there is a distinct reduction or optionally no increase in the germ count in the inoculated formulations after the prescribed times at the prescribed temperatures. Experimental details of the test procedure are described in the European Pharmacopea (ISBN 3-7692-2768-9; 2001 supplement to the 3rd Edition, page 421-422, chapter 5.1.3). The initial germ count (CFU/g; “0” value) was in the range of 240,000 to 300,000 in the various test series. For the tests for adequate preservation, (a) potentially synergistically active mixtures taken into account and (b), for comparison purposes, the corresponding unmixed 1,2-diols were incorporated in O/W emulsions. […] The variation in the total concentration of 1,2-diols or 1,2-diol mixtures in the O/W emulsions was compensated for by increasing or reducing the water content, so that otherwise identical formulations always comprised 100 parts by weight in total.

[2] = system: Candida albicans ATCC 10231; experiment: as above; settings: 3% diol(s) in O/W emulsion
Method: as §1

[3] = system: Escherichia coli ATCC 8739; experiment: as above; settings: 3% diol(s) in O/W emulsion
Method: as §1

[4] = system: Pseudomonas aeruginosa ATCC 9027; experiment: as above; settings: 3% diol(s) in O/W emulsion
Method: as §1

[5] = system: Aspergillus niger ATCC 16404; experiment: as above; settings: for germ count A. niger: 3% diol(s) in O/W emulsion; for reduction in the number of colony forming units (CFU) to the 0 value: Aspergillus niger, dosage of 3%, 28 days
Method: A test for adequate preservation was carried out in accordance with the European Pharmacopea. The test thus consists of the contamination of the formulation, if possible in its final ratio, with a prescribed inoculum of suitable microorganisms, storage of the inoculated formulation at a specific temperature, taking of samples from the vessel at specific intervals and determination of the number of microorganisms in the samples taken in this way. The preserving properties are adequate if, under the conditions of the test, there is a distinct reduction or optionally no increase in the germ count in the inoculated formulations after the prescribed times at the prescribed temperatures. Experimental details of the test procedure are described in the European Pharmacopea (ISBN 3-7692-2768-9; 2001 supplement to the 3rd Edition, page 421-422, chapter 5.1.3). The initial germ count (CFU/g; “0” value) was in the range of 240,000 to 300,000 in the various test series. For the tests for adequate preservation, (a) potentially synergistically active mixtures taken into account and (b), for comparison purposes, the corresponding unmixed 1,2-diols were incorporated in O/W emulsions. […] The variation in the total concentration of 1,2-diols or 1,2-diol mixtures in the O/W emulsions was compensated for by increasing or reducing the water content, so that otherwise identical formulations always comprised 100 parts by weight in total. […] The Kull equation enables the pure substances and the active compound mixtures prepared therefrom to be compared in respect of their antimicrobial activity. With this equation the so-called synergy index (SI), which is a measure for a synergistic activity, but also for a possible antagonistic activity, of a mixture having an antimicrobial action, is determined. A synergistic effect is evident if the SI value determined is less than 1. On the other hand, if an SI of precisely 1 is calculated, there is a pure additive effect of two substances having an antimicrobial action. In the case of an SI value greater than 1, on the other hand, there is a (frequently undesired) antagonistic effect.

[6] = system: Propionibacterium acnes ATCC 11829; experiment: MIC, agar dilution method; settings: Cutibacterium acnes, ATCC11829, anaerobic, Wilkins-Chalgren agar, 72 h at 30° C.
Method: Petri dishes 9.0 cm in diameter were charged with 13.5 ml freshly prepared Mueller-Hinton agar (Merck, Ref. 1.05437 or Wilkins-Chalgren agar boullion, Oxoid, Ref. CM 643, supplemented with log agar-agar/liter) kept liquid at 50° C., to which the various concentrations of the diluted samples were added in 10% (V/V)=1.5 ml. Mueller-Hinton agar that contained 3% Tween80 (Merck, Ref. 8.22 187) was used for the test germ Malassezia furfur. In each case 5 ml of the samples were diluted in distilled water and made up to 10 ml. The further test concentrations of the particular dilution series, which were prepared in the form of geometric series, were prepared by progressive 1:2 dilution of this batch with distilled water. […] Two agar plates were poured per test concentration and nutrient medium. After solidification and drying (approx. 1 h at 37° C.), the test plates were inoculated in point form with, in each case, 1 μl of the test germ suspensions listed below. To check purity and identity the bacteria that grow aerobically (Brevibacterium epidermidis, Corynebacterium xerosis, Staphylococcus epidermidis) were [lacuna] on Columbia blood agar (BioMérieux, Ref. 43049). […] Minimal, barely visible growth or few small individual colonies were evaluated as inhibition.

| SMILES | germ count Staph. aureus ([1]; 0′-count (initial germ count)) | germ count Staph. aureus ([1]; 24 h) [CFU/ml] | germ count Staph. aureus ([1]; 48 h) [CFU/ml] | germ count Staph. aureus ([1]; 7 d) [CFU/ml] | germ count Staph. aureus ([1]; 14 d) [CFU/ml] | germ count Staph. aureus ([1]; 28 d) [CFU/ml] | germ count C. albicans ([2]; 0′-count (initial germ count)) | germ count C. albicans ([2]; 24 h) | germ count C. albicans ([2]; 48 h) | germ count C. albicans ([2]; 4 d) [CFU/ml] | germ count C. albicans ([2]; 7 d) [CFU/ml] | germ count C. albicans ([2]; 14 d) [CFU/ml] | germ count C. albicans ([2]; 28 d) [CFU/ml] | germ count E. coli ([3]; 0′-count (initial germ count)) | germ count E. coli ([3]; 24 h) [CFU/ml] | germ count E. coli ([3]; 48 h) [CFU/ml] | germ count E. coli ([3]; 4 d) [CFU/ml] | germ count E. coli ([3]; 7 d) [CFU/ml] | germ count E. coli ([3]; 14 d) [CFU/ml] | germ count E. coli ([3]; 28 d) [CFU/ml] | also measured |
| --- | --- | --- | --- | --- | --- | --- | --- | --- | --- | --- | --- | --- | --- | --- | --- | --- | --- | --- | --- | --- | --- |
| CCCCC(O)CO (centres unmarked) [HE3, 1,2-hexanediol] | 240,000 CFU/ml | <100 | <100 | 0 | 0 | 0 | 250,000 CFU/ml | 120,000 CFU/ml | 5,600 CFU/ml | 0 | 0 | 0 | 0 | 300,000 CFU/ml | <100 | <100 | 0 | 0 | 0 | 0 | germ count Ps. aeruginosa ([4]; 0′-count (initial germ count)): 290,000 CFU/ml; germ count Ps. aeruginosa ([4]; 24 h): <100 CFU/ml; germ count Ps. aeruginosa ([4]; 48 h): <100 CFU/ml; germ count Ps. aeruginosa ([4]; 4 d): 0 CFU/ml; germ count Ps. aeruginosa ([4]; 7 d): 0 CFU/ml; germ count Ps. aeruginosa ([4]; 14 d): 0 CFU/ml; germ count Ps. aeruginosa ([4]; 28 d): 0 CFU/ml; germ count A. niger ([5]; 0′-count (initial germ count)): 260,000 CFU/ml; germ count A. niger ([5]; 24 h): 120,000 CFU/ml; germ count A. niger ([5]; 48 h): 120,000 CFU/ml; germ count A. niger ([5]; 4 d): 120,000 CFU/ml; germ count A. niger ([5]; 7 d): 80,000 CFU/ml; germ count A. niger ([5]; 14 d): 28,000 CFU/ml; germ count A. niger ([5]; 14 d, listed as 1,2-hexanediol): 28000 CFU/ml; germ count A. niger ([5]; 28 d): 800 CFU/ml; reduction in the number of colony forming units (CFU) to the 0 value [5]: did not enable a reduction in the number of colony forming units (CFU) to the desired 0 value; MIC [6]: 25 mg/mL (≈ 212 mM) |
| CCCCCCC(O)CO (centres unmarked) [OC3, 1,2-octanediol] | 240,000 CFU/ml | 0 | 0 | 0 | 0 | 0 | 250,000 CFU/ml | 3,200 CFU/ml | <100 CFU/ml | 0 | 0 | 0 | 0 | 300,000 CFU/ml | 0 | 0 | 0 | 0 | 0 | 0 | germ count Ps. aeruginosa ([4]; 0′-count (initial germ count)): 290,000 CFU/ml; germ count Ps. aeruginosa ([4]; 24 h): 0 CFU/ml; germ count Ps. aeruginosa ([4]; 48 h): 0 CFU/ml; germ count Ps. aeruginosa ([4]; 4 d): 0 CFU/ml; germ count Ps. aeruginosa ([4]; 7 d): 0 CFU/ml; germ count Ps. aeruginosa ([4]; 14 d): 0 CFU/ml; germ count Ps. aeruginosa ([4]; 28 d): 0 CFU/ml; germ count A. niger ([5]; 0′-count (initial germ count)): 260,000 CFU/ml; germ count A. niger ([5]; 24 h): 55,000 CFU/ml; germ count A. niger ([5]; 48 h): 6,000 CFU/ml; germ count A. niger ([5]; 4 d): 6,000 CFU/ml; germ count A. niger ([5]; 7 d): 1,100 CFU/ml; germ count A. niger ([5]; 14 d): 1,000 CFU/ml; germ count A. niger ([5]; 14 d, listed as 1,2-octanediol): 1000 CFU/ml; germ count A. niger ([5]; 28 d): 100 CFU/ml; reduction in the number of colony forming units (CFU) to the 0 value [5]: did not enable a reduction in the number of colony forming units (CFU) to the desired 0 value; MIC [6]: 6.25 mg/mL (≈ 42.7 mM) |
